Data reported in PubChem BioAssay (NCI).
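Cultured in 96-well plates, cells were exposed to test compound for 48 hours across five concentrations. TGI: concentration producing complete growth inhibition.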

Assays:
Test in all cases: DTP human tumour cell line panel, 48 h
COLO 205 colon = tested on: COLO 205 colon
NCI/ADR-RES ovarian = tested on: NCI/ADR-RES ovarian
CCRF-CEM leukemia = tested on: CCRF-CEM leukemia
SK-OV-3 ovarian = tested on: SK-OV-3 ovarian
MDA-MB-231 breast = tested on: MDA-MB-231 breast
A498 renal = tested on: A498 renal
ACHN renal = tested on: ACHN renal
SK-MEL-5 melanoma = tested on: SK-MEL-5 melanoma
HT29 colon = tested on: HT29 colon
HOP-92 NSCLC = tested on: HOP-92 NSCLC
LOX IMVI melanoma = tested on: LOX IMVI melanoma
RPMI-8226 leukemia = tested on: RPMI-8226 leukemia
UACC-257 melanoma = tested on: UACC-257 melanoma
HCT-116 colon = tested on: HCT-116 colon
MCF7 breast = tested on: MCF7 breast
HCC-2998 colon = tested on: HCC-2998 colon
MDA-MB-435 = tested on: MDA-MB-435
NCI-H522 lung = tested on: NCI-H522 lung
T-47D breast = tested on: T-47D breast
HL-60(TB) leukemia = tested on: HL-60(TB) leukemia

Structure (SMILES) | TGI (COLO 205 colon) [µM] | TGI (NCI/ADR-RES ovarian) [µM] | TGI (CCRF-CEM leukemia) [µM] | TGI (SK-OV-3 ovarian) [µM] | TGI (MDA-MB-231 breast) [µM] | TGI (A498 renal) [µM] | TGI (ACHN renal) [µM] | TGI (SK-MEL-5 melanoma) [µM] | TGI (HT29 colon) [µM] | TGI (HOP-92 NSCLC) [µM] | TGI (LOX IMVI melanoma) [µM] | TGI (RPMI-8226 leukemia) [µM] | TGI (UACC-257 melanoma) [µM] | TGI (HCT-116 colon) [µM] | TGI (MCF7 breast) [µM] | TGI (HCC-2998 colon) [µM] | TGI (MDA-MB-435) [µM] | TGI (NCI-H522 lung) [µM] | TGI (T-47D breast) [µM] | TGI (HL-60(TB) leukemia) [µM]
CCOC(=O)NNC(=O)C1CSC(c2ccccc2)N1C(C)=O (centres undefined) | > 100 | > 100 | > 100 | > 100 | > 100 | > 100 | > 100 | > 100 | > 100 | > 100 | > 100 | > 100 | > 100 | > 100 | > 100 | > 100 | > 100 | > 100 | > 100 | > 100
O=C(N/N=C/c1ccc2c(c1)OCO2)Nc1ccccc1Cl | 5.52 | 2.4 | > 100 | > 24.9 | > 100 | 35.6 | > 100 | 15.3 | > 49.1 | > 40 | > 100 | > 56.2 | > 100 | > 100 | > 100 | 5.14 | 1.33 | 1.1 | > 38.3 | > 23.1
Cc1cc(C)nc(NS(=O)(=O)c2ccc(Nc3c4ccccc4nc4c(C(=O)NNCCO)cccc34)cc2)n1 | > 100 | > 100 | > 100 | > 100 | > 100 | > 100 | > 100 | > 100 | > 100 | > 100 | > 100 | > 100 | > 100 |  | > 100 | > 100 | > 100 | > 100 | > 100 | > 100
Nc1nc(Cl)c(N)c(NCC2(CO)CCC2)n1 | > 100 | > 100 | > 100 | > 100 | > 100 | > 100 | > 100 | > 100 | > 100 | > 100 | > 100 | > 100 | > 100 | > 100 | > 100 | > 100 | > 100 | > 100 | > 100 | > 100
COC(=O)C(Cc1c[nH]c2ccccc12)N=C1Nc2ccncc2S(=O)(=O)N1c1ccccc1 (centres undefined) | 33.9 | > 100 | 32.2 | > 100 | > 100 | > 100 | > 100 | 30 | 44.9 | 54.8 | 69.3 | 29.3 | > 100 | > 100 | > 100 | 60.8 | 87.3 | > 100 | 51 | 0.727
COc1ccc(/C=C2\CCC(CNc3cc(C)on3)C2=O)cc1 (centres undefined) | > 100 | > 100 | > 100 | > 100 | > 100 | > 100 | > 100 | > 100 | > 100 | > 100 | > 100 | > 100 | > 100 | > 100 | > 100 | > 100 | > 100 | > 100 | > 91.1 | > 21.5
O=c1[nH]c(C23CC4CC(CC(C4)C2)C3)cc2c1c(=O)oc1ccccc12 | 46.9 | 18.9 | 42.7 | 11 | 10.8 | 5.11 | 10.6 | 18.3 | 15.7 | 6.48 | 11.6 | 15.1 | > 76.2 | 12.4 | > 41 | 19.6 | > 60.5 | 11.1 | 44.6 | > 100
Cc1ccc2c(c1)C(=O)/C(=N/Nc1ccc(Cl)cc1)CCO2 | > 100 | > 100 | > 100 | > 100 | > 100 | > 100 | > 100 | > 100 | > 100 | > 100 | > 100 | > 100 | > 100 | > 100 | > 100 | > 100 | > 100 | > 100 | > 100 | > 100
CCOC(=O)C(SCCO)C(C(=O)OCC)n1cnc2c(N)ncnc21 (centres undefined) | 20 | 56.7 | 6.39 | > 100 | 32.7 | 19.2 | 22.4 | > 58 | 25.4 | 13.4 | 15.1 | 23.5 | > 80.2 | 22.2 | 20.1 | 30.4 | 30.2 | 19.1 | 30.8 | 5.46
CC(=O)O[C@H]1CC[C@H]2[C@@H]3CCC4C(C)=NNC(=O)C4[C@H]3CC[C@]12C (some centres undefined) | > 100 | > 100 | > 100 | > 100 | > 82.8 | > 100 | > 100 | > 100 | > 100 | > 100 | > 75.4 | > 100 | > 100 | > 100 | > 100 | > 100 | > 100 | > 86.7 | > 100 | > 100
C=C(Cl)c1c(OC)cccc1OCc1ccccc1 | > 100 | > 100 | > 100 | > 100 | > 100 | > 100 | > 100 | > 100 | > 100 | 78.9 | > 100 | > 100 | 40.6 | > 100 | > 100 | > 100 | > 100 | > 100 | 95.7 | > 100
CC(=O)C(=[N+]=[N-])C(=O)NCC#N | > 10 | > 10 | > 10 | > 10 | > 10 | > 10 | > 10 | > 10 | > 10 | > 10 | > 10 | > 10 | > 10 | > 10 | > 10 | > 10 | > 10 | > 10 | > 10 | > 10
O=C(c1ccccc1)c1ccc2nc3n(c2c1)C(c1c(F)cccc1F)SC3 (centres undefined) | 21.7 | 26.5 | 37.6 | 26.7 | > 100 | 13.5 | 24.8 | 18.1 | 39.5 | > 100 | 36.6 | > 100 | 91.1 | 13.5 | 50.5 | > 52.5 | 3.96 | 6.14 | 33 | > 100
O=C1NC(=O)C(Cc2ccccc2)(c2cccnc2)N1 (centres undefined) | > 100 | > 100 | > 100 | > 100 | > 100 | > 100 | > 100 | > 100 | > 100 | > 100 | > 100 | > 100 | > 100 | > 100 | > 100 | > 100 | > 100 | > 100 | > 100 | > 100
COc1cc(OCc2nc3ccccc3n3cccc23)cc(OC)c1OC | > 82.3 | > 80.4 | 25.4 | > 100 | > 100 | > 100 | > 100 | 9.35 | > 100 | > 100 | > 100 | 14.6 | > 60.9 | > 60.5 | 37.6 | > 88.3 | > 52.4 | > 65.9 | > 100 | 48.2
COc1ccc2nc3c([N+](=O)[O-])ccc4c3c(c2c1)N=CN4CCCN(C)C | 5.77 | 18 | 3.18 | 25.3 | 8.27 | 21.4 | 15.3 | 12.1 | 12.5 | 8.94 | 8.78 | 0.772 | 17.2 | 14.1 | 11.6 | 6.54 | 20.1 | 9.61 | 27.4 | 6.27
COc1ccc2cc(CNCCCCCCCCCCCCNCc3ccc4cc(OC)ccc4c3)ccc2c1 | > 55.9 | 43 | > 37.4 | 32.7 | > 51.5 | 31.9 | 36.6 | > 54 | 23 | 47.5 | 28.2 | 42.6 | 36.3 | 32.8 | 31.9 | 39.1 | > 55.5 | 33.8 | 49.9 | 34.9
CCCCCCCCCCCCCCCCCCNc1ccn(C2OC(COP(=O)(O)OC3CC(n4cc(F)c(=O)[nH]c4=O)OC3COP(=O)(O)OCC3OC(n4ccc(N)nc4=O)C(O)C3O)C(O)C2O)c(=O)n1 (centres undefined) | > 48.7 | 53.5 | 3.37 | > 58.8 | > 61.7 | > 100 | > 100 | > 48.8 | > 59.4 | > 100 | 20 | 71.4 | > 57.3 | > 60.7 | > 100 | 27.3 | > 62.5 | > 69.7 | > 100 | 11.4
CCOC(=O)C1=CN/C(=C(/C)C(=O)OC)SC1C(=O)OCC (centres undefined) | > 100 | > 100 | > 100 | > 100 | > 100 | > 100 | > 100 | > 100 | > 100 | > 100 | > 100 | > 100 | > 100 | > 100 | > 100 | > 100 | > 100 | > 100 | > 100 | > 100
COC(=O)c1cc2c(o1)Sc1ccccc1NC2=O | > 100 | > 100 | > 100 | > 100 | > 100 | > 100 | > 100 | > 100 | > 100 | > 100 | > 100 | > 100 | > 100 | > 100 | > 100 | > 100 | > 100 | > 100 | > 100 | > 100
CN1CCC2(CC1)SC[C@H]1C(=O)N(c3ccc(Cl)cc3)C(=O)N12 | > 100 | > 100 | > 100 | > 100 | > 100 | 86.3 | > 100 | > 100 | > 100 | > 100 | > 100 | > 100 | > 100 | > 100 | > 100 | > 100 | > 100 | > 100 | > 100 | > 100
C=C1C(=O)C23CC1C[C@H](OC(C)=O)[C@H]2C1(C)C(OC(C)=O)C[C@H](O)C(C)(C)[C@H]1C(=O)[C@@H]3OC(C)=O (some centres undefined) | 4.8 | 35.6 | 7.65 | 32 | 11.7 | 29.7 | 14.1 | 27.4 | 17 | 7.84 | 10.3 | 4.81 | 11 | 6.16 | 14 | 35.9 | 11.4 | 3.48 | 5.44 | 4.47
CCN(CC)c1cc2c3c(c1)CCCN3CCC2 | > 10 | > 10 | > 10 | > 10 | > 10 | > 10 | > 10 | > 10 | > 10 | > 10 | > 10 | > 10 | > 10 | > 10 | > 10 | > 10 | > 10 | > 10 | > 10 | > 10
